Source: patent publication US20260034135A1, “USE OF N6-BENZYLAMINOPURINE AS AN APPETITE SUPPRESSANT” (THE GOVERNING COUNCIL OF THE UNIVERSITY OF TORONTO, priority 2022, published 2026)

Assays:
[1] = test system: Npy, Agrp, Pomc; assay: Hypothalamic feeding neuropeptide expression in mice by qRT-PCR; assay type: in vivo, CD-1 mice
Method: All protocols using mice were approved by the University Animal Care Committee of the University of Toronto and were performed in accordance with the Canadian Council on Animal Care. Animal experiments were performed in three separate animal facilities: Medical Sciences Building (MSB), Centre for Cellular and Biomolecular Research (CCBR) and the Biological Sciences Facility (BSF) due to ongoing construction and housing changes. Facilities and dates are indicated in each experimental cohort. N6-benzylaminopurine (BAP; also called N6-benzyladenine) was obtained from Sigma (B3408, cell culture grade in powder form; CAS number 1214-39-7). Male and female CD-1 mice aged 6-7 weeks were acquired from Charles Rivers and acclimated on a chow diet for one week prior to experimentation. Mice were then weight-matched and placed on either a 60% high fat diet (HFD) or sucrose-matched control diet for 4 weeks (from Research Diets: 60% HFD D12492 and the sucrose-matched control diet […]). After 3 weeks on the diet, mice were acclimated for one week to the drinking apparatus, a 50 mL canonical tube with a drinking tube. After 4 weeks on the diet, the mice were again weight-matched and randomly assigned to either the control or BAP group. […] The average dosages achieved using this method are as follows: male HFD (200 mg/kg/day), male control (157 mg/kg/day), female HFD (189 mg/kg/day), and female control (129.9 mg/kg/day). The mice were exposed continuously to the solutions for a total of 33 days. One week prior to the end of the experiment (day 28), the mice were fasted for 4 hr and underwent intraperitoneal insulin tolerance testing (ITT). After 33 days, the mice were sacrificed, and their tissues were collected. RNA was isolated from the collected hypothalamic and used to quantify gene expression via qRT-PCR. […] All mice were kept on the 60% HFD throughout the exposure period. The male mice were fed their respective emulsion for 11, 14 or 27 days (as indicated), and the female mice were fed for 12 or 36 days (as indicated). On day 12, the one cohort of male mice underwent general anesthetic for the purpose of post-experiment Bruker scanning. The male mice were then fed their assigned emulsion 2 hr prior to sacrificing and tissue collection. […] Hypothalamic collected from the mice were then used to isolate RNA and quantify gene expression using quantitative reverse transcription polymerase chain reaction (qRT-PCR). For cell culture experiments, total RNA was isolated using PureLink RNA isolation kit (Thermofisher Scientific, Burlington, ON, Canada) according to the manufacturer's instruction with on column DNase step (PureLink DNAse kit) or DNase I treatment to remove genomic DNA. For mouse experiments, total RNA was isolated using mirVana PARIS RNA and native protein isolation kit (Thermofisher Scientific). […] Quantitative reverse transcription polymerase chain reaction (RT-qPCR) was performed with 12.5 ng of cDNA amplified with Platinum SYBR green qPCR SuperMix-UDG with ROX on an Applied Biosystems Prism 7900HT or PowerTrack Green Master Mix on an Applied Biosystems QuantStudio 5 and gene specific primers as per manufacturer's instructions (Table 1). Data was analyzed using […] and normalized to reference gene, either 60S ribosomal protein L7 (Rpl7) or Histone 3a (His).

[2] = test system: mHypoA-Bmal1-WT/F cell line; assay: Gene expression by qRT-PCR in mHypoA-Bmal1-WT/F hypothalamic cell line; assay type: cell-based, mouse; conditions: 100 μM BAP, 16 hr
Method: Hypothalamic neurons from embryonic and adult mice were previously immortalized to generate the clonal cell lines mHypoE-46, mHypoE-44, mHypoE-41, mHypoE-38, mHypoA-59, a FAC-sorted POMC/GFP mouse-derived cell line, mHypoA-POMC/GFP-2, and a mixed culture mHypoA-Bmal1-WT/F cell line (6, 13, 14). The mHypoE-46, mHypoE-44, and mHypoA-Bmal1-WT/F lines were cultured in DMEM containing 1000 mg/L glucose supplemented with 5% FBS and 1% pen/strep. The mHypoE-41, mHypoE-38, and mHypoA-59 cell lines were cultured in DMEM containing 4500 mg/L glucose supplemented with 2% FBS and 1% pen/strep. The mHypoA-POMC/GFP-2 line was cultured in DMEM containing 1000 mg/L glucose supplemented with 2% FBS and 1% pen/strep. All cells were maintained in 5% CO2 at 37° C. BAP was initially dissolved in DMSO solvent (vehicle control) to achieve 1000x the intended dose. The BAP solution was then diluted 1:1000 with the growth media used for the cell line. For co-treatment experiments, the vehicle control for ATP, UDP, and PKI was water, and for the H89 PKA inhibitor was DMSO. Neuropeptide gene expression levels were determined by qRT-PCR.
For cell culture experiments, total RNA was isolated using PureLink RNA isolation kit (Thermofisher Scientific, Burlington, ON, Canada) according to the manufacturer's instruction with on column DNase step (PureLink DNAse kit) or DNase I treatment to remove genomic DNA. […] RNA quality and quantity were measured using Nanodrop 2000 and 500-1000 ng of complimentary DNA (cDNA) was synthesized with High Capacity cDNA Reverse Transcription kit (Applied biosystems, Thermofisher Scientific). Quantitative reverse transcription polymerase chain reaction (RT-qPCR) was performed with 12.5 ng of cDNA amplified with Platinum SYBR green qPCR SuperMix-UDG with ROX on an Applied Biosystems Prism 7900HT or PowerTrack Green Master Mix on an Applied Biosystems QuantStudio 5 and gene specific primers as per manufacturer's instructions (Table 1). Data was analyzed using […] and normalized to reference gene, either 60S ribosomal protein L7 (Rpl7) or Histone 3a (His).

[3] = female CD-1, 60% HFD, BAP in drinking water 33 days
[4] = male CD-1, HFD, BAP emulsion 11 days, fed 2 hr prior to sacrifice, cohort CCBR
[5] = male CD-1, HFD, BAP emulsion 14 days, cohort BSF
[6] = male CD-1, HFD, BAP emulsion, 28 days cohort BSF (27 days per FIG. 22)
[7] = male CD-1, sucrose-matched control diet, BAP in drinking water 33 days

c1ccc(CNc2ncnc3nc[nH]c23)cc1 [BAP, N6-benzylaminopurine]
hypothalamic Npy, Agrp, and Pomc expression ([1]; female CD-1, 60% HFD, 300 mg/kg BAP emulsion 36 days, cohort BSF): no changes
hypothalamic expression of feeding neuropeptides ([1]; female CD-1, 60% HFD, BAP emulsion 12 days, fed 16 hr prior to sacrifice, cohort CCBR (data not shown)): no significant changes
hypothalamic Agrp mRNA expression [1, 3]: no significant changes
hypothalamic Npy mRNA expression [1, 3]: no significant changes
hypothalamic Pomc mRNA expression [1, 3]: decreased
hypothalamic feeding neuropeptide expression (Npy, Agrp, Pomc) ([1]; female CD-1, sucrose-matched control diet, BAP in drinking water 33 days, trend to increased Npy and AgRP): do not have significant changes
hypothalamic feeding-related neuropeptide expression (Npy, Agrp, Pomc) vs control ([1]; male CD-1, 60% HFD, BAP in drinking water 33 days): did not have any significant changes
hypothalamic Agrp mRNA expression [1, 4]: significantly increased
hypothalamic Npy mRNA expression [1, 4]: significantly increased
hypothalamic Pomc mRNA expression [1, 4]: no significant changes
hypothalamic Agrp expression [1, 5]: modest increase
hypothalamic Npy expression [1, 5]: modest increase
hypothalamic Pomc expression [1, 5]: no change
hypothalamic Agrp expression [1, 6]: modest increase
hypothalamic Npy expression [1, 6]: modest increase
hypothalamic Pomc expression [1, 6]: no change
hypothalamic AgRP expression vs control [1, 7]: significantly higher
hypothalamic Npy expression vs control [1, 7]: significantly higher
hypothalamic Pomc mRNA expression vs control [1, 7]: no change
Agrp mRNA expression [2]: increased
Npy mRNA expression [2]: supressed
Pomc expression [2]: significantly induced
